Results as given in patent US5691189A (priority 1995, dated 1997).
Entries after “also recorded” stand apart in the source; their conditions may differ.

Tests used:
Type in all cases: cell-based
[1] = biological target: Udorn M2 (M2 protein of Influenza A virus) (Influenza A virus (A/Udorn/307/1972(H3N2)), UniProt P0DOF5)
[2] = biological target: T1, M2 (WSN) (M2 protein of Influenza A virus) (Influenza A virus (A/Wilson-Smith/1933(H1N1)), UniProt P05780); settings: inducing media (galactose), 30° C., A600 versus time; amantadine 100 μM (FIG. 4)
T1 construct: amantadine-resistant, natural Asn31

[3] = biological target: M2 (WSN, N31S) (M2 protein of Influenza A virus) (Influenza A virus (A/Wilson-Smith/1933(H1N1)), UniProt P05780, N31S)

NC12CC3CC(CC(C3)C1)C2 [amantadine]
growth of yeast transformants expressing the Udorn allele of M2 in the presence of amantadine [1]: growth rescue; also recorded: grow at near wild-type rates
growth of yeast transformants expressing the amantadine-resistant WSN allele of M2 in the presence of amantadine [2]: not remediated
toxicity of overexpressed WSN(N31S) M2 allele in yeast on addition of amantadine to the media [3]: blocked
